# Results taken from US8993637B2 (priority 2013, dated 2015).
# Legend:
# [1] = test system: mouse FSGS model (adriamycin-induced, BALB/c mice); experiment: Mouse FSGS model: urine protein and renal function (serum BUN, Cr); format: in vivo; details: Citral 200 mg/kg daily by gavage
# Method: A progressive type of mouse FSGS model was used, particularly characterized by EPHLs, a key histopathology index of progression of FSGS, peri-glomerular inflammation, and progressive glomerular hyalinosis/sclerosis. The FSGS model was induced in 8-week-old male BALB/c mice (National Laboratory Animal Center, Taipei, Taiwan) by intravenous injection of a single dose of adriamycin (0.10 mg/10 g body weight) (Pfizer, New York, N.Y.) as described previously. […] Age- and sex-matched BALB/c mice were used as normal controls. Urine samples were collected in metabolic cages on days 3, 7, 14, 21, and 28. Renal cortical tissues and blood samples were collected when the mice were sacrificed and stored appropriately for further analysis. The concentration of urine protein was determined using BCA kits (Pierce, Rockford, Ill.) as described previously and normalized to urine creatinine (Cr) levels measured using kits (Wako Pure Chemical Industries, Osaka, Japan), as described previously. Serum levels of blood urea nitrogen (BUN) and Cr were determined using BUN kits and Cr kits (both from Fuji Dry-Chem Slide, Fuji Film Medical, Tokyo, Japan), as described previously. Urine and blood samples were collected from the mice at different time points, which were analyzed for proteinuria and blood urea nitrogen (BUN) and creatinine (Cr) levels by using a urease assay and a picric acid method respectively (Nephron 1998; 78: 440-452).
# [2] = Adverse side effects in animals; details: in vivo
# RAW 264.7 macrophages = experiment: Pro-inflammatory cytokine ELISA in LPS-activated macrophages; format: cell-based, murine; details: LPS 1 μg/ml 24 h, culture medium
# Method: ROS production was measured as the relative fluorescence intensity. […] The data are expressed as the mean±SD for three separate experiments. *p<0.05, **p<0.01 compared to the LPS-treated group. RAW-Blue™ cells (Murine macrophages RAW264.7 stably transfected with the NF-κB reporter gene) purchased from InvivoGen (San Diego, Calif.). LPS (from Escherichia coli 0111:B4) and mouse antibodies against phospho-ERK1/2, phospho-JNK1/2, and phospho-p38 (all from Sigma, St. Louis, Mo.). Rabbit antibodies against mouse ERK1, JNK1, and p38, and HRP-labeled second antibodies were purchased from Santa Cruz Biotechnology, and IL-1β, IL-6, and TNF-α ELISA kits from R&D Systems. ROS production assay, NO production assay, NF-κB reporter assay, ELISA, and Western blotting were performed as described previously.
# [3] = test system: p47phox, Nrf2, NQO1, HO-1; experiment: Mouse FSGS model: renal p47phox, nuclear Nrf2, NQO1 (Western blot) and HO-1 (ELISA); format: in vivo
# Method: A progressive type of mouse FSGS model was used, particularly characterized by EPHLs, a key histopathology index of progression of FSGS, peri-glomerular inflammation, and progressive glomerular hyalinosis/sclerosis. The FSGS model was induced in 8-week-old male BALB/c mice (National Laboratory Animal Center, Taipei, Taiwan) by intravenous injection of a single dose of adriamycin (0.10 mg/10 g body weight) (Pfizer, New York, N.Y.) as described previously. […] Age- and sex-matched BALB/c mice were used as normal controls. Urine samples were collected in metabolic cages on days 3, 7, 14, 21, and 28. Renal cortical tissues and blood samples were collected when the mice were sacrificed and stored appropriately for further analysis. The concentration of urine protein was determined using BCA kits (Pierce, Rockford, Ill.) as described previously and normalized to urine creatinine (Cr) levels measured using kits (Wako Pure Chemical Industries, Osaka, Japan), as described previously. Serum levels of blood urea nitrogen (BUN) and Cr were determined using BUN kits and Cr kits (both from Fuji Dry-Chem Slide, Fuji Film Medical, Tokyo, Japan), as described previously. Cytoplasmic and nuclear proteins from renal tissues were prepared using a kit (Active Motif, Tokyo, Japan) according to the manufacturer's instructions and target proteins detected by immunoblotting using goat antibodies against mouse Nrf2 or p47^phox, (Santa Cruz Biotechnology, Santa Cruz, Calif.) or rabbit antibodies against mouse NQO1 (Abcam), caspase-3, caspase-8, or caspase-9 (all from Cell Signaling Technology, MA) or Bcl2 or Bax (both from Santa Cruz Biotechnology), then with horseradish-conjugated rabbit anti-goat IgG antibodies or goat-anti-rabbit IgG antibodies (both from Santa Cruz Biotechnology) as described previously. Anti-β-actin antibody (Santa Cruz Biotechnology) was used as internal controls for the nuclear and cytosolic target proteins, respectively. Renal HO-1 levels were measured using a commercial ELISA kit (R&D Systems, Minneapolis, Minn.) according to the manufacturer's instructions.
structure (smiles),measurement,setting,value
"CC(C)=CCCC(C)=CC=O (racemic) [Citral, 3,7-dimethyl-2,6-octadienal]",proteinuria (urine protein),"[1]; day 14, FSGS+Citral vs FSGS+vehicle mice",slightly inhibited
same,proteinuria (urine protein),"[1]; day 21, vs FSGS+vehicle mice, p<0.005",markedly inhibited
same,proteinuria (urine protein),"[1]; day 28, vs FSGS+vehicle mice, p<0.01",markedly inhibited
same,serum levels of BUN,"[1]; days 14 and 28, p<0.05","almost, or completely, suppressed"
same,serum levels of Cr,"[1]; days 14 and 28, p<0.05","almost, or completely, suppressed"
same,adverse side effects to animals,[2],no apparent adverse side effects
same,secretion level of IL-1β,RAW 264.7 macrophages,inhibited
same,secretion level of IL-6,RAW 264.7 macrophages,inhibited
same,secretion level of TNF-α,RAW 264.7 macrophages,inhibited
same,decrease of nuclear Nrf2 expression,"[3]; day 14, kidney","inhibited at day 14 in FSGS+Citral mice, although not statistically significant"
same,increase of renal p47phox protein levels,"[3]; day 28, cytosolic, p<0.01",inhibited
same,cytosolic levels of NQO1,"[3]; day 28, relative to normal control mice, p<0.01",significantly higher
same,nuclear Nrf2 levels,"[3]; day 28, vs FSGS+vehicle (p<0.005) and normal control mice (p<0.05)",greatly increased
same,renal HO-1 levels,"[3]; days 14 and 28, vs FSGS+vehicle mice, p<0.05 or p<0.01",significantly elevated
